The test concerns the target T1, PGD2 receptor 2 (DP2) (Homo sapiens, UniProt Q9Y5Y4).
T1 construct: gene PTGDR2
T1 sequence (Q9Y5Y4 1-395): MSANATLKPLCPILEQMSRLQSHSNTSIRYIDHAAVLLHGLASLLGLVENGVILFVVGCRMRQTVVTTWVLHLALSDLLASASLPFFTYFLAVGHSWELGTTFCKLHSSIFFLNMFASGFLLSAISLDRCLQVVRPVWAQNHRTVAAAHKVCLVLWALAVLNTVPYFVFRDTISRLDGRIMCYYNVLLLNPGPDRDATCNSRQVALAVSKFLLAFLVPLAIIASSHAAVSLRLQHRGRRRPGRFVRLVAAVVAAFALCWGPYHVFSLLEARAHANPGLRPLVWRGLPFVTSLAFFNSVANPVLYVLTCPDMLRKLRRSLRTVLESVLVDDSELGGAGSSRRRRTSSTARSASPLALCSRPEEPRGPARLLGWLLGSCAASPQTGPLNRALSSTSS

The compound `Cc1c(CC(=O)O)c2cccnc2n1Cc1ccc(S(C)(=O)=O)cc1C(F)(F)F` [fevipiprant] yielded a half-maximal inhibitory concentration (IC50) of 3.5 ± 3.6 nM.

As usually defined, the IC50 is the concentration that inhibits the measured activity by half. High values mean lower potency, low ones higher potency.

Source of the values: PMC7610864, “The Roles of Type 2 Cytotoxic T Cells in Inflammation, Tissue Remodeling, and Prostaglandin (PG) D2 Production Are Attenuated by PGD2 Receptor 2 Antagonism” (The Journal of Immunology Author Choice, 2021).
